# Test system: human platelets
# Test: U46619-induced human platelet aggregation ex vivo in platelet rich plasma
# Assay type: cell-based
# Conditions: fold less potent than TP20
# Text: A modification of the turbidimetric method originally developed by Born & Cross (Born, G. V. and Cross, M. J., The Aggregation of Blood Platelets, J Physiol, 1963, 168:178-95) is used. The principle is based on the diffraction of the light by particles. When a light beam passes through a suspension of particles, it is diffracted, depending on the number and the size of the particles in suspension.
# In the Born & Cross method, a light beam passes through a platelet suspension and the quantity of light is measured by a detector placed after the sample. Upon platelet aggregation, the size of platelet aggregates will increase while the total number of free platelets will decrease. Consequently, less light will be diffracted and the detector will record an increase in light intensity. The aggregometer has been developed based on these concepts. Variations in light transmission recorded by this device reflects the platelet physiology. When an agonist of platelet aggregation is added to a platelet suspension, platelets undergo activation and shape change. […]
# Light transmission (T) is measured throughout all the experiment, which is ended 8 minutes after induction of aggregation. Maximal light transmission (Tmax) is determined in the sample without drugs. Minimal light transmission (Tmin) is measured in PRP without inducer. […]
compound,measurement,value
"COc1ccc(-c2cccc(Oc3ccc(C#N)cc3S(=O)(=O)NC(=O)NC(C)(C)C)c2)cc1 [NTP4, N-(tert-butylcarbamoyl)-5-cyano-2-((4′-methoxy-[1,1′-biphenyl]-3-yl)oxy)benzenesulfonamide]","Potency relative to TP20, inhibition of U46619-mediated platelet aggregation",approx. ten-fold

# From patent US9738599B2, “Thromboxane receptor antagonists” (UNIVERSITY COLLEGE DUBLIN, NATIONAL UNIVERSITY OF IRELAND, …, priority 2012, dated 2017)
